For the assay, the system named is A375 cells. Briefly: Aerobic glycolysis (NAD+) fluorescence of PFK15-treated A375 cells read out with C3N quantum dots. It counts as cell-based. Particulars: PFK15 20 nM, 12 h; then C3N quantum dots 1 μg/mL 2 h at 25° C.; excitation 400 nm. Here is the method: A375 cells were selected as the samples to be tested with a cell concentration of 10^5.
[…] (PFK15, 20 nM) was added to the cell samples to be tested and incubated for 12 h. C3N quantum dots (with a diameter of 1 nm, a concentration of 1 μg/mL, a solvent of saline) were selected as the aerobic glycolysis detection product. 1 μL of C3N quantum dots were added to the samples to be tested and incubated for 2 h at 25° C. The fluorescence of the samples was observed by a fluorescence microscope (with an excitation wavelength of 400 nm). It can be seen that the fluorescence of the A375 cells with PFK15 treatment (PFK15 can block the aerobic glycolysis metabolism and reduce the NAD^+ concentration in cytoplasm) was decreased by 43% compared with that of the group without PFK15 treatment (results were shown in FIG. 5).

Here are results for one compound from US20240069027A1, “USE OF NITROGEN-DOPED CARBON FLUORESCENT QUANTUM DOT IN PREPARATION OF PRODUCT FOR DETECTING AEROBIC GLYCOLYSIS” (SHANGHAI NINTH PEOPLE'S HOSPITAL, SHANGHAI JIAOTONG …, priority 2020, published 2024).

On to `O=C(C=Cc1ccc2ccccc2n1)c1ccncc1` [PFK15, 1-(4-pyridinyl)-3-(2-quinolinyl)-2-propen-1-one], for which the “decrease of fluorescence of A375 cells compared with group without PFK15 treatment” value was found to be 43%.
